The test has as its system kidney uptake of [177Lu-DOTA0,Tyr3]octreotate. Briefly: Kidney uptake of [177Lu-DOTA0,Tyr3]octreotate measured by NanoSPECT in rats. Format: in vivo, Male Lewis rats. How it is done:
For reduction of kidney rats were injected with 20 mg Gelofusine, 100 mg lysine or the combination. Kidney uptake was measured by SPECT scans with a […] multi-pinhole camera (NanoSPECT, Bioscan) at 24 h, 5 and 7 days pi. Kidney uptake was quantified by VOI analysis.

Turning to `NCCCC[C@H](N)C(=O)O` [lysine], the “inhibition of kidney uptake of [177Lu-DOTA0,Tyr3]octreotate” value (24 h pi, 555 MBq, 20 mg Gelofusine, 100 mg lysine or the combination, SPECT VOI analysis) is listed as 37%±6%. The “reduction of kidney uptake with an overdose of lysine alone” value (rats, overdose of lysine alone) is “did not improve the reduction of the kidney uptake”.
